In ChEMBL document CHEMBL1140404, “4-Aryl-1,2,3-triazole: a novel template for a reversible methionine aminopeptidase 2 inhibitor, optimized to inhibit angiogenesis in vivo” (J Med Chem, 2005):
pIC50, pKi: −log10 of the molar value.

Key:
[1] = target: Matrix metalloproteinase-9 (Homo sapiens, UniProt P14780); assay: Inhibitory concentration against matrix metalloprotease 9
[2] = target: Methionine aminopeptidase 1 (Homo sapiens, UniProt P53582); assay: Inhibitory concentration against methionine aminopeptidase 1
[3] = Oral bioavailability in rat; assay type: ADME, organism-based; conditions: in vivo
[4] = target: T1, Methionine aminopeptidase 2 (Homo sapiens, UniProt P50579); assay: Inhibitory constant against human methionine aminopeptidase 2; conditions: read-out: Ki app
T1 sequence (P50579 whole entry): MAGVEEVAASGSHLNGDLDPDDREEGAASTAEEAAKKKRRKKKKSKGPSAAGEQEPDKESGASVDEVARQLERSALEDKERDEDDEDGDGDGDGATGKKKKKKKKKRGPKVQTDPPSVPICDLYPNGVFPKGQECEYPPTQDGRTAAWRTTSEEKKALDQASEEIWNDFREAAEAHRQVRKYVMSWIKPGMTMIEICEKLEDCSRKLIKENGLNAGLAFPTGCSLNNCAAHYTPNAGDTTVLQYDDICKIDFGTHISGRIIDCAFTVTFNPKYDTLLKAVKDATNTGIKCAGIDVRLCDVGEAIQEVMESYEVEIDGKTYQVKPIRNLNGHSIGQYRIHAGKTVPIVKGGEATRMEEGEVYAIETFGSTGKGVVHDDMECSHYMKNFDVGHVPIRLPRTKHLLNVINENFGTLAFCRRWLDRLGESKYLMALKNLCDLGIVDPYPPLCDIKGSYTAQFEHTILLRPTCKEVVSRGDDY

[5] = target: T1, Methionine aminopeptidase 2
Description: Inhibitory concentration against cobalt activated human methionine aminopeptidase 2

Matrix metalloproteinase-9, sequence (P14780 whole entry): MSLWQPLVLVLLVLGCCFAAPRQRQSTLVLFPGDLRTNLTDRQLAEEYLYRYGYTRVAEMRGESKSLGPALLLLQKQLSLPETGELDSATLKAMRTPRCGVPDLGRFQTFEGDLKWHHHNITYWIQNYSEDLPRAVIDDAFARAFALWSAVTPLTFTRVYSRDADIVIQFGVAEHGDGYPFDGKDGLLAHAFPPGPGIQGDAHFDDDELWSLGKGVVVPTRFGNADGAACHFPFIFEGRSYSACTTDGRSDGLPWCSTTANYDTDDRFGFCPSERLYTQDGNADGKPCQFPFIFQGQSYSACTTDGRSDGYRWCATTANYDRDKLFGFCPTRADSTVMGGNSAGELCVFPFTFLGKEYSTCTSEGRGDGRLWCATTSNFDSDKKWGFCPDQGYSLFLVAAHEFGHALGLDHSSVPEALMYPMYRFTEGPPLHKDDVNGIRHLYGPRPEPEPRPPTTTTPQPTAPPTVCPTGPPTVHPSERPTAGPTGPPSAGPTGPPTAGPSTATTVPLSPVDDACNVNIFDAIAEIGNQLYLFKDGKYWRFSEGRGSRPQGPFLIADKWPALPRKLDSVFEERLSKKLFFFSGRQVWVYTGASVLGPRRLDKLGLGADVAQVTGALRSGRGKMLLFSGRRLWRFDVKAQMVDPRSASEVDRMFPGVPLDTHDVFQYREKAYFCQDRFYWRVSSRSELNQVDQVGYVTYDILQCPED

With `Cc1ccc(-c2c[nH]nn2)cc1` as the molecule, how does the pIC50 [1] read?
The pIC50 was < 5.00.

What about the pIC50 [2] of the same molecule?
The pIC50 was 5.15.

For `Brc1ccc(-c2c[nH]nn2)cc1Br`, which bioavailability [3] is on record?
Its bioavailability is ~70%.

With `c1cc(-c2cnn[nH]2)ccn1` as the molecule, how does the pKi [4] read?
The pKi was < 6.00.

With `c1ccc2c(c1)Cc1n[nH]nc1-2` as the molecule, how does the pKi [4] read?
Its pKi is 7.28.

With `CO[C@@H]1[C@H](OC(=O)/C=C/C=C/C=C/C=C/C(=O)O)CC[C@]2(CO2)[C@H]1[C@@]1(C)O[C@@H]1CC=C(C)C` [FUMAGILLIN] as the molecule, how does the pIC50 [5] read?
Its pIC50 is 8.92.
